In patent US20090104265A1, “Polymorphs of N-(4-chloro-3-methyl-5-isoxazolyl) 2-[2-methyl-4,5-(methylenedioxy)phenylacetyl] thiophene-3-sulfonamide, sodium salt” (priority 2006, published 2009):
“Also recorded” adds a separate entry of the source. Like-named read-outs stand apart in the source and are kept apart here.

Legend:
[1] = Moisture sorption/desorption (moisture balance); type: physicochemical; conditions: for weight loss at 5% RH: sample not dried prior to analysis; for hygroscopicity: based on moisture sorption/desorption data
Procedure: The moisture sorption/desorption data was collected on a VT SGA-100 moisture balance system. […] The sample was not dried prior to analysis. Equilibrium criteria used for analysis was less than 0.0100% weight change in 5 minutes with a maximum equilibration time of 3 hours if the weight criterion was not met. Data was not corrected for the initial moisture content of the samples.

[2] = Interconversion studies of Forms A and B; type: physicochemical
Excerpt: The interconversion of Forms A and B were preformed using ethyl acetate and 95% isopropanol:water. […] The interconversions in ethyl acetate yielded a mixture of Forms A and B, which is probably due to the low solublility of the materials.

[3] = ambient temperature, sodium salt
physchem = conditions: thermodynamic from solid, SOLUBILITY (mg/mL), ambient temperature
[4] = listed as Sample lot I Form A, sodium salt
[5] = listed as Sample lot III Form A, sodium salt
[6] = listed as Sample lot IV Form A, sodium salt

## Cc1cc2c(cc1CC(=O)c1sccc1S(=O)(=O)Nc1onc(C)c1Cl)OCO2.[Na] [Amorphous, N-(4-chloro-3-methyl-5-isoxazolyl)-2-[2-methyl-4,5-(methylenedioxy)phenylacetyl]thiophene-3-sulfonamide, sodium salt]
[1]
  weight loss at 5% RH: 1.4% weight loss at 5% RH,
  hygroscopicity: highly hygroscopic
[1]; listed as amorphous form, sodium salt
  total weight gain at 95% RH: 22%
[1]; sodium salt
  total weight gain at 95% RH: 22.0.% total weight gain at 95% RH

## Cc1cc2c(cc1CC(=O)c1sccc1S(=O)(=O)[N-]c1onc(C)c1Cl)OCO2.[Na+] [Form A, N-(4-chloro-3-methyl-5-isoxazolyl)-2-[2-methyl-4,5-(methylenedioxy)phenylacetyl]thiophene-3-sulfonamide, sodium salt]
[2]; interconversion in 95% isopropanol:water
  relative thermodynamic stability of the forms: more thermodynamically stable form
[2]; interconversion studies in ethyl acetate (so in the source)
  relative stability of the forms: most stable form
[2]; interconversion studies, solvent not stated
  relative thermodynamic stability of the forms: more thermodynamically stable form
[3]; N,N-dimethylformamide (DMF)
  solubility: >228 mg/mL
[3]; chloroform
  solubility: <3 mg/mL
[3]; dichloromethane
  solubility: <3 mg/mL
[3]; methyl t-butyl ether (MTBE)
  solubility: <3 mg/mL
[1]; [4]
  weight loss at 5% RH: 0.18% weight loss at 5% RH,
  total weight gain at 95% RH: 1.48% total weight gain at 95% RH
[1]; [5]
  weight loss at 5% RH: 0.04% weight loss at 5% RH,
  total weight gain at 95% RH: 1.08% total weight gain at 95% RH
[1]; [6]
  weight loss at 5% RH: 0.05% weight loss at 5% RH,
  total weight gain at 95% RH: 1.10% total weight gain at 95% RH
[1]; sodium salt
  weight loss at 5% RH: minimal weight
  total weight gain at 95% RH: less than 1.5%
  hygroscopicity: non-hygroscopic up to 75% RH; also recorded: nonhygroscopic
physchem; organic solvent or mixture, N,N-dimethylformamide (DMF)
  solubility: 228 mg/mL
physchem; organic solvent or mixture, acetone
  solubility: 96 mg/mL
physchem; organic solvent or mixture, acetonitrile (ACN)
  solubility: 25 mg/mL
physchem; organic solvent or mixture, chloroform
  solubility: < 3 mg/mL
physchem; organic solvent or mixture, dichloromethane
  solubility: < 3 mg/mL
physchem; organic solvent or mixture, ethanol (EtOH)
  solubility: 60 mg/mL
physchem; organic solvent or mixture, ethyl acetate (EtOAc)
  solubility: 6 mg/mL
physchem; organic solvent or mixture, hexanes
  solubility: < 8 mg/mL
physchem; organic solvent or mixture, isopropanol (IPA)
  solubility: < 4 mg/mL
physchem; organic solvent or mixture, methanol (MeOH)
  solubility: 160 mg/mL
physchem; organic solvent or mixture, methyl ethyl ketone (MEK)
  solubility: 34 mg/mL
physchem; organic solvent or mixture, methyl t-butyl ether (MTBE)
  solubility: < 3 mg/mL
physchem; organic solvent or mixture, tetrahydrofuran (THF)
  solubility: 86 mg/mL
physchem; organic solvent or mixture, toluene
  solubility: < 7 mg/mL
physchem; water
  solubility: 48 mg/mL

## Cc1cc2c(cc1CC(=O)c1sccc1S(=O)(=O)[N-]c1onc(C)c1Cl)OCO2.[Na+] [Form B, N-(4-chloro-3-methyl-5-isoxazolyl)-2-[2-methyl-4,5-(methylenedioxy)phenylacetyl]thiophene-3-sulfonamide, sodium salt]
[1]; sodium salt
  weight loss at 5% RH: 0.13% weight loss at 5% RH,
  total weight gain at 95% RH: 0.98% total weight gain at 95% RH
[1]; 5 to 95% RH sorption, 95 to 5% RH desorption
  weight change during the moisture sorption/desorption experiment: loses and gains minimal weight
